Assay results reported in patent US20070059364A1, “Active substance combination comprising a compound with npy receptor affinity and a compound with 5-ht6 receptor affinity” (Laboratorios Del Dr. Esteve S.A., priority 2003, published 2007).
Where a name gives a salt, the structure may show the parent alone.

Question: Which melting point does the source give for `Cc1cccc2c1N(C1CCN(S(=O)(=O)c3cccc(Cl)c3Cl)CC1)C(=O)OC2` here?
Answer: 184 to 185 °C

Question: With `Cl.O=C1c2ccccc2-c2cc(NC(=O)C(c3ccccc3)N3CCC(N4C(=O)OCc5ccccc54)CC3)ccc21` (stereo not shown) as the compound, how does the melting point read?
Answer: 247 to 249 °C

Question: With `CN(C)CCc1c[nH]c2ccc(NS(=O)(=O)c3cccc4nsnc34)cc12` as the compound, how does the melting point read?
Answer: 192 °C

Question: Which melting point does the source give for `CN(C)CCc1c[nH]c2ccc(NS(=O)(=O)c3ccc4c(Cl)cccc4c3)cc12` here?
Answer: 230 to 240 °C (dec.)

Question: With `CN(C)CCc1c[nH]c2ccc(NS(=O)(=O)c3ccc(-c4ccccc4)cc3)cc12` as the compound, how does the melting point read?
Answer: 184 to 186 °C

Question: For `CCN(CC)CCc1c[nH]c2ccc(NS(=O)(=O)c3ccc4ccccc4c3)cc12`, which melting point is on record?
Answer: 134 to 136 °C

Question: For `CCCN(CCC)CCc1c[nH]c2ccc(NS(=O)(=O)c3cccc4ccccc34)cc12`, which melting point is on record?
Answer: 76 to 80 °C

Question: Which melting point does the source give for `CCCCN(CCCC)CCc1c[nH]c2ccc(NS(=O)(=O)c3sc4ccc(Cl)cc4c3C)cc12` here?
Answer: 79 to 80 °C

Question: With `CCCCN(CCCC)CCc1c[nH]c2ccc(NS(=O)(=O)c3cccc4ccccc34)cc12` as the compound, how does the melting point read?
Answer: 111 to 113 °C

Question: With `Cc1cccc2c1N(C1CCN(CC(=O)Nc3ccc4c(c3)-c3ccccc3C4=O)CC1)C(=O)OC2.Cl` as the compound, how does the melting point read?
Answer: 233 to 236 °C

Question: For `CCN(CC)CCc1c[nH]c2ccc(NS(=O)(=O)c3c(Cl)nc4sccn34)cc12`, which melting point is on record?
Answer: 197 to 198 °C

Question: Which melting point does the source give for `Cl.O=C(CN1CCC(N2C(=O)OCc3cc(Cl)ccc32)CC1)Nc1ccccc1` here?
Answer: 265 to 277 °C

Question: For `Cl.N#Cc1ccc(NC(=O)CN2CCC(N3C(=O)OCc4ccccc43)CC2)cc1`, which melting point is on record?
Answer: 268 to 282 °C

Question: Which melting point does the source give for `Cc1cccc2c1N(C1CCN(CC(=O)Nc3ccc(C(=O)c4ccccc4)cc3)CC1)C(=O)OC2.Cl` here?
Answer: 217 °C

Question: For `Cl.O=C(CN1CCC(N2C(=O)OCc3cc(Cl)ccc32)CC1)Nc1ccc(C(=O)c2ccccc2)cc1`, which melting point is on record?
Answer: 256 to 259 °C

Question: Which melting point does the source give for `Cc1ccc2c(c1)COC(=O)N2C1CCN(CC(=O)Nc2ccc3c(c2)C(=O)c2ccccc2-3)CC1.Cl` here?
Answer: 281 to 285 °C

Question: Which melting point does the source give for `Cl.O=C(CN1CCC(N2C(=O)OCc3ccccc32)CC1)Nc1cccc(C(=O)c2ccccc2)c1` here?
Answer: 214 to 218 °C

Question: Which melting point does the source give for `CCN(c1ccccc1)c1ccc(NC(=O)CN2CCC(N3C(=O)OCc4ccc(C)cc43)CC2)cc1` here?
Answer: 199 °C

Question: Which melting point does the source give for `O=C(CN1CCC(N2C(=O)OCc3cccc(Cl)c32)CC1)Nc1ccc2[nH]c3ccccc3c2c1` here?
Answer: 180 °C

Question: For `O=C(CN1CCC(N2C(=O)OCc3ccccc32)CC1)Nc1ccc2c(c1)CCC2=O`, which melting point is on record?
Answer: 206 to 209 °C

Question: With `CCN(CC)CCc1c[nH]c2ccc(NS(=O)(=O)c3cccc4ccccc34)cc12` (as salt: hydrochloride) as the compound, how does the melting point read?
Answer: 255 to 257 °C

Question: Which melting point does the source give for `CCN(CC)CCc1c[nH]c2ccc(NS(=O)(=O)c3sc4ccc(Cl)cc4c3C)cc12` [24e] here?
Answer: 53 to 56 °C

Question: For `CCN(CC)CCc1c[nH]c2ccc(NS(=O)(=O)c3sc4ccc(Cl)cc4c3C)cc12` [Example 1c, N-[3-(2-diethylaminoethyl)-1H-indol-5-yl]-5-chloro-3-methylbenzo[b]thiophene-2-sulphonamide], which melting point is on record?
Answer: 170 to 173 °C

Question: With `Cc1c(S(=O)(=O)Nc2cccc3c2ccn3CCN(C)C)sc2ccc(Cl)cc12` [Example 1d, N-[1-(2-dimethylaminoethyl)-1H-indole-4-yl]-5-chloro-3-methyl-benzo[b]thiophene-2-sulfonamide] as the compound, how does the melting point read?
Answer: 78 to 80 °C

Question: Which melting point does the source give for `Cc1c(S(=O)(=O)Nc2ccc3c(ccn3CCN(C)C)c2)sc2ccc(Cl)cc12` [Example 1e, N-[1-(2-dimethylaminoethyl)-1H-indole-5-yl]-5-chloro-3-methylbenzo[b]thiophene-2-sulfonamide] here?
Answer: 71 to 73 °C

Question: With `CN1CC=C(c2cn(S(=O)(=O)C3CCCCC3)c3ccc([N+](=O)[O-])cc23)CC1` [Example 1h, 1-Cyclohexanesulfonyl-3-(1-methyl-1,2,3,6-tetrahydropyridine-4-yl)-5-nitro-1H-indole] as the compound, how does the melting point read?
Answer: 155 to 160 °C

Question: For `CN(C)CCn1ccc2ccc(NS(=O)(=O)c3ccc4ccccc4c3)cc21` [Example 2f, N-[1-(2-Dimethylaminoethyl)-1H-indol-6-yl]-naphthalene-2-sulfonamide], which melting point is on record?
Answer: 140 to 143 °C

Question: For `Cc1c(S(=O)(=O)Nc2cccc3ccn(CCN(C)C)c23)sc2ccc(Cl)cc12` [Example 2g, N-[1-(2-dimethylaminoethyl)-1H-indole-7-yl]-5-chloro-3-methylbenzo[b]thiophene-2-sulfonamide], which melting point is on record?
Answer: 57 to 65 °C

Question: With `CN1CC=C(c2cn(S(=O)(=O)C3CCCCC3)c3ccc(Cl)cc23)CC1` [Example 2h, 5-Chloro-1-cyclohexanesulfonyl-3-(1-methyl-1,2,3,6-tetrahydropyridine-4-yl)-1H-indole] as the compound, how does the melting point read?
Answer: 88 to 90 °C

Question: With `CCN(CC)CCc1c[nH]c2ccc(NS(=O)(=O)c3cccc4ccccc34)cc12.Cl` [Example 3c, Hydrochloride N-[3-(2-diethylaminoethyl)-1H-indol-5-yl]naphthalene-1-sulphonamide] as the compound, how does the melting point read?
Answer: 255 to 257 °C

Question: Which melting point does the source give for `CN(C)CCn1ccc2cc(NS(=O)(=O)c3cccc4ccccc34)ccc21` [Example 3e, N-[1-(2-dimethylaminoethyl)-1H-indole-5-yl]-naphthalene-1-sulfonamide] here?
Answer: 179 to 181 °C

Question: Which melting point does the source give for `CN(C)CCn1ccc2ccc(NS(=O)(=O)c3cccc4ccccc34)cc21` [Example 3f, N-[1-(2-Dimethylaminoethyl)-1H-indol-6-yl]-naphthalene-1-sulfonamide] here?
Answer: 139 to 142 °C

Question: For `CN(C)CCn1ccc2cccc(NS(=O)(=O)c3ccc(-c4ccccc4)cc3)c21` [Example 3g, N-[1-(2-dimethylaminoethyl)-1H-indole-7-yl]-4-phenylbenzenesulfonamide], which melting point is on record?
Answer: 137 to 140 °C

Question: Which melting point does the source give for `CN1CC=C(c2cn(S(=O)(=O)C3CCCCC3)c3ccc(N)cc23)CC1` [Example 3h, 5-Amino-1-cyclohexanesulfonyl-3-(1-methyl-1,2,3,6-tetrahydropyridine-4-yl)-1H-indole] here?
Answer: 75 °C (dec.)

Question: With `CCN(CC)CCc1c[nH]c2ccc(NS(=O)(=O)c3cc(Cl)cc(Cl)c3)cc12` [Example 4c, N-[3-(2-diethylaminoethyl)-1H-indol-5-yl]-3,5-dichlorobenzenesulphonamide] as the compound, how does the melting point read?
Answer: 168 to 170 °C

Question: With `CN(C)CCn1ccc2c(NS(=O)(=O)c3ccc(-c4ccccc4)cc3)cccc21` [Example 4d, N-[1-(2-dimethylaminoethyl)-1H-indole-4-yl]-4 phenylbenzenesulfonamide] as the compound, how does the melting point read?
Answer: 137 to 140 °C

Question: For `CN(C)CCn1ccc2cc(NS(=O)(=O)c3cccc4c(Cl)cccc34)ccc21` [Example 4e, N-[1-(2-dimethylaminoethyl)-1H-indole-5-yl]-5-chloronaphthalene-1-sulfonamide], which melting point is on record?
Answer: 172 to 174 °C

Question: For `CN(C)CCn1ccc2cccc(NS(=O)(=O)c3c(Cl)nc4sccn34)c21` [Example 4g, N-[1-(2-dimethylaminoethyl)-1H-indole-7-yl]-6-chloroimidazo[2,1-b]thiazole-5-sulfonamide], which melting point is on record?
Answer: 73 to 76 °C

Question: For `Cl.O=S(=O)(C1CCCCC1)n1cc(C2=CCN3CCCC3C2)c2cc(F)ccc21` (stereo not shown) [Example 4h, 1-Cyclohexanesulfonyl-5-fluoro-3-(1,2,3,5,8,8a-hexahydro-indolizine-7-yl)-1H-indole hydrochloride], which melting point is on record?
Answer: 263 °C (dec.)

Question: For `CCN(CC)CCc1c[nH]c2ccc(NS(=O)(=O)c3ccc(-c4ccccc4)cc3)cc12` [Example 5c, N-[3-(2-diethylaminoethyl)-1H-indol-5-yl]-4-phenylbenzenesulphonamide], which melting point is on record?
Answer: 161 to 163 °C
